Tests used:
Test in all cases: NCI-60 SRB screening (one-dose and five-dose)
Format in all cases: cell-based, human
Details in all cases: 48 h
[1] = system: MDA-MB-435
Protocol: (§1) The compounds were added at a single concentration and the cell cultures were incubated for 48 h. The end point determinations were made with a protein binding dye, sulforhodamine B (SRB). […] The percentage of growth was evaluated spectrophotometrically versus controls not treated with test agents after 48-h exposure and using SRB protein assay to estimate cell viability or growth. […] Furthermore, mean graph midpoints (MG_MID) were calculated for each of the parameters, giving an average activity parameter over all cell lines for the tested compound. For the MG_MID calculation, insensitive cell lines were included with the highest concentration tested.

[2] = system: BT-549
Protocol: as §1

[3] = system: OVCAR-8
Protocol: as §1

[4] = system: MOLT-4
Protocol: as §1

[5] = system: OVCAR-3
Protocol: as §1

[6] = system: MDA-MB-468
Protocol: as §1

[7] = system: MDA-MB-231/ATCC
Protocol: as §1

[8] = system: UACC-257
Protocol: as §1

[9] = system: SN12C
Protocol: as §1

[10] = system: M14
Protocol: as §1

[11] = system: SK-MEL-2
Protocol: as §1

[12] = system: SW-620
Protocol: as §1

[13] = system: SK-MEL-5
Protocol: as §1

[14] = system: NCI/ADR-RES
Protocol: as §1

[15] = system: HCT-15
Protocol: as §1

[16] = system: SF-268
Protocol: as §1

[17] = system: KM-12
Protocol: as §1

[18] = system: 786-0
Protocol: as §1

[19] = system: OVCAR-4
Protocol: as §1

[20] = system: MALME-3M
Protocol: as §1

[21] = system: RXF 393
Protocol: as §1

[22] = system: TK-10
Protocol: as §1

[23] = system: HOP-92
Protocol: as §1

[24] = system: HCT-116
Protocol: as §1

[25] = system: NCI-H460
Protocol: as §1

[26] = system: NCI-H322M
Protocol: as §1

[27] = system: HL-60(TB)
Protocol: as §1

[28] = system: SK-MEL-28
Protocol: as §1

[29] = system: HCC-2998
Protocol: as §1

[30] = system: DU-145
Protocol: as §1

[31] = system: OVCAR-5
Protocol: as §1

[32] = system: EKVX
Protocol: as §1

[33] = system: SK-OV-3
Protocol: as §1

[34] = system: MCF7
Protocol: as §1

[35] = system: ACHN
Protocol: as §1

[36] = system: CCRF-CEM
Protocol: as §1

[37] = system: UO-31
Protocol: as §1

[38] = system: K-562
Protocol: as §1

[39] = system: HS 578T
Protocol: as §1

[40] = system: SF-295
Protocol: as §1

[41] = Homo sapiens, five dose 0.01–100 μM

C[C@H]1[C@@H]2[C@H]3CC[C@@H]4[C@@]5(C)C/C(=C\c6cccnc6)C(=O)C(C)(C)[C@@H]5CC[C@@]4(C)[C@]3(C)CC[C@]23CO[C@@]1(C)[C@@H](C(=O)/C=C/c1cccnc1)C3 [Compound 6, 3-Oxo-2-(3-pyridinylidene)-21-[3-(2E-pyridinyl)-prop-2-en-1-one]-20β,28-epoxy-18α,19βH-ursane]
GI50 ([1]; Homo sapiens, MDA-MB-435, MDA-B-435, five dose 0.01–100 μM): 1090 nM | Growth Percent ([1]; MDA-MB-435, 10 μM): −7.30% | Growth Percent ([2]; BT-549, 10 μM): −20.09% | GI50 ([2]; Homo sapiens, BT-549, five dose 0.01–100 μM): 730 nM | GI50 ([3]; Homo sapiens, OVCAR-8, five dose 0.01–100 μM): 1600 nM | Growth Percent ([3]; OVCAR-8, 10 μM): −13.55% | GI50 ([4]; Homo sapiens, MOLT-4, five dose 0.01–100 μM): 170 nM | Growth Percent ([4]; MOLT-4, 10 μM): 16.72% | GI50 ([5]; Homo sapiens, OVCAR-3, five dose 0.01–100 μM): 880 nM | Growth Percent ([5]; OVCAR-3, 10 μM): −43.66% | GI50 ([6]; Homo sapiens, MDA-MB-468, five dose 0.01–100 μM): 860 nM | Growth Percent ([6]; MDA-MB-468, 10 μM): −5.83% | Growth Percent ([7]; 10 μM): −30.71% | GI50 [7, 41]: 1030 nM | GI50 ([8]; Homo sapiens, UACC-257, five dose 0.01–100 μM): 1670 nM | Growth Percent ([8]; UACC-257, 10 μM): 13.16% | Growth Percent ([9]; 10 μM): −17.67% | GI50 [9, 41]: 940 nM | GI50 ([10]; Homo sapiens, M14, five dose 0.01–100 μM): 1740 nM | Growth Percent ([10]; M14, 10 μM): −20.11% | GI50 ([11]; Homo sapiens, SK-MEL-2, five dose 0.01–100 μM): 1300 nM | Growth Percent ([11]; SK-MEL-2, 10 μM): −25.53% | GI50 ([12]; Homo sapiens, SW-620, five dose 0.01–100 μM): 980 nM | Growth Percent ([12]; SW-620, 10 μM): −26.39% | GI50 ([13]; Homo sapiens, SK-MEL-5, five dose 0.01–100 μM): 820 nM | Growth Percent ([13]; SK-MEL-5, 10 μM): −82.25% | Growth Percent ([14]; 10 μM): 2.97% | GI50 [14, 41]: 1700 nM | Growth Percent ([15]; HCT-15, 10 μM): −15.30% | GI50 ([15]; Homo sapiens, HCT-15, five dose 0.01–100 μM): 1110 nM | GI50 ([16]; Homo sapiens, SF-268, five dose 0.01–100 μM): 1310 nM | Growth Percent ([16]; SF-268, 10 μM): 7.10% | GI50 ([17]; Homo sapiens, KM12, KM-12, five dose 0.01–100 μM): 910 nM | Growth Percent ([17]; KM-12, 10 μM): −55.61% | Growth Percent ([18]; 786-0, 10 μM): −38.97% | GI50 ([18]; Homo sapiens, 786-0, five dose 0.01–100 μM): 920 nM | GI50 ([19]; Homo sapiens, OVCAR-4, five dose 0.01–100 μM): 1490 nM | Growth Percent ([19]; OVCAR-4, 10 μM): 18.62% | Growth Percent ([20]; 10 μM): −33.54% | GI50 [20, 41]: 800 nM | GI50 ([21]; Homo sapiens, RXF 393, five dose 0.01–100 μM): 830 nM | Growth Percent ([21]; RXF 393, 10 μM): −91.75% | GI50 ([22]; Homo sapiens, TK-10, five dose 0.01–100 μM): 1830 nM | Growth Percent ([22]; TK-10, 10 μM): −14.49% | Growth Percent ([23]; HOP-92, 10 μM): −19.97% | GI50 ([23]; Homo sapiens, HOP-92, five dose 0.01–100 μM): 820 nM | Growth Percent ([24]; HCT-116, 10 μM): −45.63% | GI50 ([24]; Homo sapiens, HCT-116, five dose 0.01–100 μM): 230 nM | GI50 ([25]; Homo sapiens, NCI-H460, five dose 0.01–100 μM): 890 nM | Growth Percent ([25]; NCI-H460, 10 μM): −45.33% | Growth Percent ([26]; 10 μM): 46.39% | GI50 [26, 41]: 1820 nM | Growth Percent ([27]; 10 μM): 14.49% | GI50 [27, 41]: 560 nM | GI50 ([28]; Homo sapiens, SK-MEL-28, five dose 0.01–100 μM): 940 nM | Growth Percent ([28]; SK-MEL-28, 10 μM): −17.77% | Growth Percent ([29]; HCC-2998, 10 μM): −67.18% | GI50 ([29]; Homo sapiens, HCC-2998, five dose 0.01–100 μM): 890 nM | Growth Percent ([30]; DU-145, 10 μM): −28.80% | GI50 ([30]; Homo sapiens, DU-145, five dose 0.01–100 μM): 930 nM | GI50 ([31]; Homo sapiens, OVCAR-5, five dose 0.01–100 μM): 1460 nM | Growth Percent ([31]; OVCAR-5, 10 μM): −4.00% | Growth Percent ([32]; 10 μM): −1.58% | GI50 [32, 41]: 1720 nM | GI50 ([33]; Homo sapiens, SK-OV-3, five dose 0.01–100 μM): 5900 nM | Growth Percent ([33]; SK-OV-3, 10 μM): 58.93% | GI50 ([34]; Homo sapiens, MCF7, five dose 0.01–100 μM): 910 nM | Growth Percent ([34]; MCF7, 10 μM): 9.88% | Growth Percent ([35]; 10 μM): −22.16% | GI50 [35, 41]: 1410 nM | Growth Percent ([36]; 10 μM): 17.92% | GI50 [36, 41]: 170 nM | GI50 ([37]; Homo sapiens, UO-31, five dose 0.01–100 μM): 640 nM | Growth Percent ([37]; UO-31, 10 μM): −97.34% | GI50 ([38]; Homo sapiens, K562, K-562, five dose 0.01–100 μM): 30 nM | Growth Percent ([38]; K-562, 10 μM): 6.51% | Growth Percent ([39]; 10 μM): 11.24% | GI50 [39, 41]: 1440 nM | GI50 ([40]; Homo sapiens, SF-295, five dose 0.01–100 μM): 1690 nM | Growth Percent ([40]; SF-295, 10 μM): 6.07%

Reference: paper PMC8509773, “3-Pyridinylidene Derivatives of Chemically Modified Lupane and Ursane Triterpenes as Promising Anticancer Agents by Targeting Apoptosis” (International Journal of Molecular Sciences, 2021)
